Data set [1] in a line: Equilibrium solubility of FFA in DDW and PBS in the absence and presence of a predissolved polymer or a combination. The class given is physicochemical. The method, then:
The FFA solubility was determined by suspending an excess amount of crystalline materials of FFA I in small vials with 20 mL of a selected dissolution medium (i.e., DDW or PBS pH 4.5) in the absence and presence of a predissolved single polymer and a combination. The detailed polymers and their corresponding concentrations were 0.2 mg/mL of PVP-VA, 1 mg/mL of PEG and 0.2 mg/mL of SLP, which were based on the previous study and the solubility curve obtained in the preliminary study in Figure S5 in the supporting materials. All of the suspensions were kept at 37 ± 0.5°C in a water bath with a shaking rate of 150 rpm for 24 h. Each of the supernatants was separated from excess solids in solution by centrifugation at 13,000 RPM for 1 min in an MSB 010.CX2.5 centrifuge (MSE Ltd., London, U.K.). Subsequently, the supernatant was diluted using ethanol, and the FFA concentration was determined using HPLC. The solid residues retrieved from the tests were dried for 24 h at ambient temperature and then analysed by PXRD. Each of the experiments was conducted in triplicate, and data were reported as an average concentration. Additionally, the FFA solubility in PBS pH 6.8 at 37 ± 0.5°C was also measured in triplicate. The solids were scanned by D2 phaser diffractometer (Bruker U.K. Limited, Coventry, UK) with […] radiation operating at voltage of 30 kV and current of 10 mA. The scanning angle ranged from 2°-40° of 2θ. The scanning time per step was 0.4 s. The scan step size was 0.02° of 2θ.

Data set [2] can be described thus: Particle size distribution of sieved powders. The class given is physicochemical. Particulars: sieved particles < 250 μm. The method, then: All samples (i.e., FFA, FFA-NIC cocrystal and FFA-TP cocrystal) used in the dissolution tests were slightly ground by a mortar and pestle and sieved by a 60-mesh sieve (below 250 μm) to reduce the influence of particle size on the dissolution rates. The particle size distributions of the test samples were measured using a SYNC Analyzer (MICROTRAC Retsch GmbH, Hann, Germany). The particle size distributions (D10, D50, D90 and mean particle size) of the solid particles were compared. The data were analysed by the Microtrac FLEX software (12.0.0.1).

The nature of data set [3]: Dissolution tests of powders in DDW with predissolved polymer or combination (USP type II paddle). The format is physicochemical. The following applies: for solid residues after dissolution tests (PXRD): DDW in the absence or presence of predissolved polymers; for FFA concentration in solution after 4 h / FFA DPP (dissolution performance parameter): DDW; for FFA concentration in solution after 4 h: no polymer, powder dissolution; for FFA DPP (dissolution performance parameter): 0-4 h, reference same powder in DDW. On the procedure:
In vitro dissolution tests were performed with a USP type II paddle apparatus (DT 126 light, Erweka GmbH, Germany) at 37 ± 0.5°C with a paddle speed of 50 rpm in 400 mL of DDW in the absence and presence of a predissolved polymer (i.e., 0.2 mg/mL of PVP-VA, 1 mg/mL of PEG, 0.2 mg/mL of SLP) or a combination of two polymers (i.e., 0.2 mg/mL PVP-VA + 1 mg/mL PEG, […]).
71.7 mg of FFA-NIC cocrystal powders with the equivalent of 50 mg FFA I powders were used in each of the dissolution tests. Samples of 1 ± 0.1 mL were withdrawn from the dissolution vessel at the predefined time points of 5, 10, 15, 30, 60, 120, 180 and 240 min. The supernatant of each of the samples was separated from the excess solids by centrifugation at 13,000 RPM for 1 min in an MSE Micro Centaur. HPLC was used to determine the concentrations of FFA and NIC in solution. Solid residues obtained from the experiments were dried at room temperature and analysed by PXRD. All experiments were repeated in triplicate.
For comparison, the above dissolution tests were also repeated using 50 mg of pure FFA I powders and 82.0 mg of FFA-TP cocrystal powders.
DPP was used to evaluate the dissolution profile of the test powders in comparison to a reference system, which is defined as,4 DPP=AUCC(t)-AUCCR(t)/AUCCR(t)×100% where AUCC(t) is the area under the curve (AUC) of a dissolution profile C(t) , indicating the amount of drug dissolved is maintained over the period of the dissolution time from 0 to t, and AUCCR(t) is the AUC of a reference dissolution profile CR(t) .
The solids were scanned by D2 phaser diffractometer (Bruker U.K. Limited, Coventry, UK) with […] radiation operating at voltage of 30 kV and current of 10 mA. The scanning angle ranged from 2°-40° of 2θ. The scanning time per step was 0.4 s. The scan step size was 0.02° of 2θ.

The nature of data set [4]: Ionisation constants of flufenamic acid. Particulars: at pH 4.5. The format is physicochemical.
Details of data set [5]: method as in doi:10.1007/s10953-010-9642-6. Particulars: cited from earlier work.
[6] abbreviates: predissolved PVP-VA (0.2 mg/mL).
[7] abbreviates: predissolved SLP (0.2 mg/mL) + PVP-VA (0.2 mg/mL).

Consider `O=C(O)c1ccccc1Nc1cccc(C(F)(F)F)c1` [FFA, Flufenamic acid], for which the solubility (in general, the concentration that dissolves in the medium under given conditions) at 24 h in data set [1] (DDW, 37 °C, aqueous with cosolvent or surfactant or cyclodextrin, thermodynamic from solid, DDW, predissolved PEG (1 mg/mL) + PVP-VA (0.2 mg/mL), 37°C) worked out at 20.9 ± 5.35 µg/mL; in data set [1] (DDW, 37 °C, aqueous with cosolvent or surfactant or cyclodextrin, thermodynamic from solid, DDW, predissolved SLP (0.2 mg/mL) + PVP-VA (0.2 mg/mL), 37°C) it was 119 ± 3.3 µg/mL; in data set [1] (DDW, 37 °C, aqueous with cosolvent or surfactant or cyclodextrin, thermodynamic from solid, predissolved PEG (1 mg/mL)) it was 17.8 ± 1.72 µg/mL; in data set [1] (DDW, 37 °C, aqueous with cosolvent or surfactant or cyclodextrin, thermodynamic from solid, predissolved PVP-VA (0.2 mg/mL)), 12 ± 1.4 µg/mL; in data set [1] (DDW, absence of polymer, 37°C) it was 10.1 ± 0.79 µg/mL; in data set [1] (DDW, predissolved SLP (0.2 mg/mL), 37°C), 111 ± 16.2 µg/mL. Moreover, the solubility at 24 h was 18.3 ± 2.39 µg/mL in data set [1] (PBS pH 4.5, 37 °C, pH 4.5, aqueous buffer, thermodynamic from solid, PBS pH 4.5, absence of polymer, 37°C); 11.4 ± 0.22 µg/mL in data set [1] (PBS pH 4.5, 37 °C, pH 4.5, aqueous with cosolvent or surfactant or cyclodextrin, thermodynamic from solid, PBS pH 4.5, predissolved PEG (1 mg/mL) + PVP-VA (0.2 mg/mL), 37°C); 11 ± 1.32 µg/mL in data set [1] (PBS pH 4.5, 37 °C, pH 4.5, aqueous with cosolvent or surfactant or cyclodextrin, thermodynamic from solid, PBS pH 4.5, predissolved PVP-VA (0.2 mg/mL), 37°C); 41.1 ± 4.2 µg/mL in data set [1] (PBS pH 4.5, 37 °C, pH 4.5, aqueous with cosolvent or surfactant or cyclodextrin, thermodynamic from solid, PBS pH 4.5, predissolved SLP (0.2 mg/mL) + PVP-VA (0.2 mg/mL), 37°C); 41.9 ± 2.5 µg/mL in data set [1] (PBS pH 4.5, 37 °C, pH 4.5, aqueous with cosolvent or surfactant or cyclodextrin, thermodynamic from solid, PBS pH 4.5, predissolved SLP (0.2 mg/mL), 37°C); 9.01 ± 0.26 µg/mL in data set [1] (PBS pH 4.5, pH 4.5, PBS pH 4.5, predissolved PEG (1 mg/mL), 37°C). In addition, the solubility in data set [1] (PBS pH 6.8, 37 °C, pH 6.8, aqueous buffer, thermodynamic from solid, PBS pH 6.8, absence of polymer, 37°C) came out at 741.1 ± 6.27 µg/mL. Moreover, in data set [1] (after 24 h in various media), the “solid form of residues after solubility tests (PXRD)” value is listed as “remained the form I”. Besides, the D10 in data set [2] is 5.19 μm. The compound further registered a D50 in data set [2] of 13.58 μm. Also, in data set [2], the D90 is 84.86 μm. The compound also returned a Mean particle size in data set [2] of 31.71 μm. Also, in data set [3], the “solid residues after dissolution tests (PXRD)” value is recorded as “no phase transformation”. Moreover, in data set [3], the “FFA concentration in solution after 4 h” value came out at 4.99 µg/mL. The entries for the “FFA DPP (dissolution performance parameter)” value (“FFA DPP” below) in data set [3] (setting [6]), in data set [3] (setting [7]) and in data set [3] (predissolved SLP (0.2 mg/mL)) were -24%, 50% and 30%, respectively. In data set [4], the “fraction in the neutral form” value was “more than 75%”. The “isoelectric point pH” value in data set [5] is on record as 3.88 ± 0.03. The “pKa1 (basic group)” value in data set [5] was 2.92 ± 0.01. Moreover, in data set [5], the “pKa2 (acidic group)” value is given as 4.84 ± 0.04.
Regarding `Cn1c(=O)c2[nH]cnc2n(C)c1=O.O=C(O)c1ccccc1Nc1cccc(C(F)(F)F)c1` [FFA-TP cocrystal], in data set [2], the D10 is recorded as 5.25 μm, the D50 is given as 12.32 μm, the D90 worked out at 56.64 μm and the Mean particle size was found to be 23.92 μm. Also, in data set [3], the “solid residues after dissolution tests (PXRD)” value is on record as “the same as the starting materials” and the “FFA concentration in solution after 4 h” value was 8.35 µg/mL. For the same compound, the “FFA DPP” value in data set [3] (predissolved PEG (1 mg/mL) + PVP-VA (0.2 mg/mL)) is given as 12%. For the same compound, the “FFA DPP” value in data set [3] (predissolved PEG (1 mg/mL)) turned out to be 24%. In data set [3] (setting [6]), the “FFA DPP” value is listed as -17%. The “FFA DPP” value in data set [3] (setting [7]) was 23%. Also, the “FFA DPP” value in data set [3] (predissolved SLP (0.2 mg/mL)) turned out to be 3%.

Values taken from publication PMC10447287, “Optimisation of Pharmaceutical Cocrystal Dissolution Performance through a Synergistic Precipitation Inhibition” (Pharmaceutical Research, 2023).
